Key:
[1] = The drug is tested on Collinsella aerofaciens strain: ATCC25986 for biotransformation. The drug concentrations were measured before and after a 12-h incubation by liquid-chromatography-coupled mass spectrometry (LC–MS); settings: 2 µM
[2] = The drug is tested on Alistipes indistinctus strain: DSM22520 for biotransformation. The drug concentrations were measured before and after a 12-h incubation by liquid-chromatography-coupled mass spectrometry (LC–MS); settings: 2 µM
[3] = The drug is tested on Bacteroides coprophilus strain: DSM18228 for biotransformation. The drug concentrations were measured before and after a 12-h incubation by liquid-chromatography-coupled mass spectrometry (LC–MS); settings: 2 µM
[4] = The drug is tested on Bacteroides fragilis strain: ATCC43859 for biotransformation. The drug concentrations were measured before and after a 12-h incubation by liquid-chromatography-coupled mass spectrometry (LC–MS); settings: 2 µM
[5] = The drug is tested on Parabacteroides merdae strain: ATCC43184 for biotransformation. The drug concentrations were measured before and after a 12-h incubation by liquid-chromatography-coupled mass spectrometry (LC–MS); settings: 2 µM
[6] = The drug is tested on Clostridium scindens strain: ATCC35704 for biotransformation. The drug concentrations were measured before and after a 12-h incubation by liquid-chromatography-coupled mass spectrometry (LC–MS); settings: 2 µM
[7] = The drug is tested on Clostridium sporogenes strain: ATCC15579 for biotransformation. The drug concentrations were measured before and after a 12-h incubation by liquid-chromatography-coupled mass spectrometry (LC–MS); settings: 2 µM
[8] = The drug is tested on Enterococcus faecalis strain: V583 for biotransformation. The drug concentrations were measured before and after a 12-h incubation by liquid-chromatography-coupled mass spectrometry (LC–MS); settings: 2 µM
[9] = The drug is tested on Eubacterium hallii strain: DSM3353 for biotransformation. The drug concentrations were measured before and after a 12-h incubation by liquid-chromatography-coupled mass spectrometry (LC–MS); settings: anaerobutyricum hallii, 2 µM
[10] = The drug is tested on Eubacterium ventriosum strain: ATCC27560 for biotransformation. The drug concentrations were measured before and after a 12-h incubation by liquid-chromatography-coupled mass spectrometry (LC–MS); format: ADME; set-up: dose 2 uM, timepoint 0 vs 12 hours; settings: 2 µM
[11] = The drug is tested on Ruminococcus gnavus strain: ATCC29149 for biotransformation. The drug concentrations were measured before and after a 12-h incubation by liquid-chromatography-coupled mass spectrometry (LC–MS); settings: mediterraneibacter gnavus, 2 µM
[12] = The drug is tested on Ruminococcus lactaris strain: ATCC29176 for biotransformation. The drug concentrations were measured before and after a 12-h incubation by liquid-chromatography-coupled mass spectrometry (LC–MS); settings: 2 µM
[13] = The drug is tested on Escherichia coli strain: BW25113 for biotransformation. The drug concentrations were measured before and after a 12-h incubation by liquid-chromatography-coupled mass spectrometry (LC–MS); settings: 2 µM
[14] = The drug is tested on Providencia stuartii strain: ATCC25827 for biotransformation. The drug concentrations were measured before and after a 12-h incubation by liquid-chromatography-coupled mass spectrometry (LC–MS); settings: 2 µM
[15] = bifidobacterium adolescentis, 12 h, 2 µM
Description: The drug is tested on Bifidobacterium adolescentis strain: ATCC 15703 for biotransformation. The drug concentrations were measured before and after a 12-h incubation by liquid-chromatography-coupled mass spectrometry (LC–MS)

[16] = bacteroides fragilis, 12 h, 2 µM
Description: The drug is tested on Bacteroides fragilis strain: NCTC 9343 for biotransformation. The drug concentrations were measured before and after a 12-h incubation by liquid-chromatography-coupled mass spectrometry (LC–MS)

[17] = bacteroides thetaiotaomicron, 12 h, 2 µM
Description: The drug is tested on Bacteroides thetaiotaomicron strain: 3731 for biotransformation. The drug concentrations were measured before and after a 12-h incubation by liquid-chromatography-coupled mass spectrometry (LC–MS)

[18] = enterocloster bolteae, 12 h, 2 µM
Description: The drug is tested on Clostridium bolteae strain: ATCCBAA-613 for biotransformation. The drug concentrations were measured before and after a 12-h incubation by liquid-chromatography-coupled mass spectrometry (LC–MS)

[19] = parabacteroides johnsonii, 12 h, 2 µM
Description: The drug is tested on Parabacteroides johnsonii strain: DSM18315 for biotransformation. The drug concentrations were measured before and after a 12-h incubation by liquid-chromatography-coupled mass spectrometry (LC–MS)

SMILES | Bacterial Biotransformation [1] | Bacterial Biotransformation [2] | Bacterial Biotransformation [3] | Bacterial Biotransformation [4] | Bacterial Biotransformation [5] | Bacterial Biotransformation [6] | Bacterial Biotransformation [7] | Bacterial Biotransformation [8] | Bacterial Biotransformation [9] | Bacterial Biotransformation [10] | Bacterial Biotransformation [11] | Bacterial Biotransformation [12] | Bacterial Biotransformation [13] | Bacterial Biotransformation [14] | Bacterial Biotransformation [15] | Bacterial Biotransformation [16] | Bacterial Biotransformation [17] | Bacterial Biotransformation [18] | Bacterial Biotransformation [19]
CC(C)(C)NC(=O)[C@H]1CC[C@H]2[C@@H]3CC[C@H]4NC(=O)C=C[C@]4(C)[C@H]3CC[C@]12C [FINASTERIDE] | Compound NOT metabolized | Compound NOT metabolized | Compound NOT metabolized | Compound metabolized | Compound NOT metabolized | Compound metabolized | Compound NOT metabolized | Compound NOT metabolized | Compound NOT metabolized | Compound NOT metabolized | Compound NOT metabolized | Compound NOT metabolized | Compound NOT metabolized | Compound NOT metabolized | Compound NOT metabolized | Compound metabolized | Compound NOT metabolized | Compound NOT metabolized | –
CN1CCN(C2=Nc3ccccc3Oc3ccc(Cl)cc32)CC1.O=C(O)CCC(=O)O [LOXAPINE SUCCINATE] | – | Compound NOT metabolized | Compound NOT metabolized | Compound NOT metabolized | Compound NOT metabolized | – | Compound NOT metabolized | Compound NOT metabolized | Compound NOT metabolized | Compound NOT metabolized | Compound NOT metabolized | Compound NOT metabolized | Compound NOT metabolized | – | Compound NOT metabolized | Compound NOT metabolized | Compound NOT metabolized | Compound NOT metabolized | Compound NOT metabolized
COc1ccc2c3c1O[C@H]1C[C@@H](O)C=C[C@@]31CCN(C)C2 [GALANTAMINE] | Compound NOT metabolized | Compound metabolized | Compound metabolized | Compound metabolized | Compound NOT metabolized | Compound NOT metabolized | Compound NOT metabolized | Compound metabolized | Compound NOT metabolized | Compound NOT metabolized | Compound NOT metabolized | Compound NOT metabolized | Compound NOT metabolized | – | Compound NOT metabolized | – | Compound metabolized | Compound NOT metabolized | Compound NOT metabolized
O=C(CCCN1CCC(O)(c2ccc(Cl)cc2)CC1)c1ccc(F)cc1 [HALOPERIDOL] | Compound NOT metabolized | Compound NOT metabolized | – | Compound NOT metabolized | Compound NOT metabolized | Compound NOT metabolized | Compound NOT metabolized | Compound NOT metabolized | Compound NOT metabolized | Compound NOT metabolized | Compound NOT metabolized | Compound NOT metabolized | Compound NOT metabolized | Compound NOT metabolized | Compound NOT metabolized | Compound NOT metabolized | Compound NOT metabolized | Compound NOT metabolized | –

From ChEMBL document CHEMBL5303573, “Mapping human microbiome drug metabolism by gut bacteria and their genes” (Nature, 2019)
